The text below walks through data of US20240366571A1, “MODULATORS OF SK4 POTASSIUM CHANNEL AND USES THEREOF” (Ramot at Tel-Aviv University Ltd., priority 2022, published 2024).

Assay [1] deals with isolated rat hearts. The assay can be described thus: Langendorff perfused isolated rat hearts: electrophysiology and hemodynamics. The conditions noted are these: 10 μM. Here is the method: Animals: Adult male Sprague-Dawley rats (n=56, 200-250 grams) and Guinea pigs (n=19, 400-700 grams) obtained from Envigo Laboratories (Jerusalem, Israel) were bred and grown in Ben-Gurion University of the Negev, Israel. Experiments in rats and guinea pigs were approved by the institutional ethics committee of Ben-Gurion University of the Negev, Israel (Protocol No. IL-24-05-2020(D) and were carried out in strict accordance with the Guide for the Care and Use of Laboratory Animals of the National Institutes of Health. The animals were kept under standardized conditions: 12:12 light: dark cycles at 20-24° C. and 30-70% relative humidity.
Perfused isolated hearts—Langendorff method: The isolated heart experiment setup was performed as described in Etzion et al., Am J Physiol Heart Circ Physiol (2008) 295, H1460-1469; and Mor et al., J Pharmacol Exp Ther (2013) 344, 59-67.]. Briefly, each animal was anesthetized with 2% isoflurane and an intraperitoneal (IP) injection of pentobarbital (60 mg/kg), followed by IP injection of Heparin (1000 U/kg). The heart was rapidly excised and placed into ice-cold Tyrode's buffer solution (consisted of 140 mM NaCl, 5.4 mM KCl, 0.5 mM MgCl2, 2.5 mM CaCl2, 0.39 mM NaH2PO4, 10 mM HEPES and 11 mM glucose, and titrated to pH 7.4 with NaOH). The aorta was cannulated and connected to a pre-heated (37° C.) and oxygenated perfusion system with Tyrode's solution while perfusion pressure was maintained at about 70 mmHg throughout the experiment. Prior to the experiment, the heart was left in Tyrode's solution to stabilize for 20 minutes for hemodynamic measurements, the left atrial appendage was excised, and a collapsed latex balloon was inserted into the left ventricle (LV) through the mitral valve. Once positioned, the balloon was filled with double distilled water reaching an end-diastolic pressure of 10-15 mmHg. Coronary perfusion pressure and LV pressure were recorded by a pressure amplifier (ETH-256C amplifier and B-100 probes, iWorx, NH, USA). Electrophysiological signals were recorded from the high right atrium (HRA) via a miniature quadripolar hook electrode (for simultaneous pacing and recording) and from the LV via a bipolar hook electrode. Electrical signals were filtered (1-2 kHz) and recorded by two voltage amplifiers (Model 3000, A-M Systems, Carlsberg, WA, USA). Signals were interfaced with a PC using an A/D converter (PCI-6024E, National Instruments, Austin TX, USA) and a custom-designed program developed with LabVIEW programing language (National Instruments, Austin, TX, USA) to control signal acquisition, data saving and off-line analysis. Measured physiological parameters during the experiment included perfusion flow (ml/minute) as a marker for coronary perfusion pressure, LV developed pressure, dP/dt±(representing the rate of rise of left ventricular pressure during isovolumetric contraction as a marker for LV contractility), heart rate, PR, and RR intervals. Tram-34 and BA6b9 were applied for a 20-minutes incubation period and physiological parameters were recorded.
Effective refractory period measurements: Using both custom-made quadripolar electrode inserted on the HRA and two bipolar electrodes (recording and pacing) on the LV, allowed measurement of the effective refractory period (ERP) at the atrial level (atrial effective refractory period, AERP), atrioventricular level (AVERP), and ventricular level (VERP). For ERP measurement, a programmed S1S2 stimulation protocol was performed using double diastolic threshold intensity. The protocol consisted of ten S1-S2 intervals of 150 milliseconds (ms) followed by an S1-S2 interval that was reduced by 1 ms each time, until pacing capture failed three consecutive times. AERP, AVERP, and VERP were measured and recorded prior and after exposure to the used inhibitor, either Tram-34 or BA6b9.

Assay [2] relates to isolated rat hearts. Put plainly: Atrial fibrillation induction by burst pacing with carbachol in isolated rat hearts. As to the method: Atrial Fibrillation induction in Sprague-Dawley rats: For evaluation of Tram-34 and BA6b9 on atrial fibrillation (AF) induction, a custom-made quadripolar electrode was inserted for simultaneous recording and pacing on the HRA. To increase susceptibility for reentry and atrial tachyarrhythmia, the cholinergic agonist carbachol was used. First, baseline AERP was measured under normal physiological conditions, and the measurement was repeated upon exposure to 0.3 μM carbachol, 0.3 μM carbachol+10 μM Tram-34 or 0.3 μM carbachol+10 μM BA6b9. Then, for AF induction, burst pacing was applied to the HRA under increasing pacing thresholds (2×, 3×, 4×, 5×, and 6× threshold). This protocol included two consecutive 5 second bursts at a cycle length of 20 milliseconds for each threshold. This protocol was tested under […] conditions: normal physiological conditions, 0.3 μM carbachol, 0.3 μM carbachol+10 μM Tram-34, or 0.3 μM carbachol+10 μM BA6b9. To determine AF susceptibility under each condition, an AFIS (AF induction score) ranking system was created, relying on the level of threshold intensity when AF induction was successful. Lower AF induction threshold means higher AFIS. The ranking was as follows: induction at 2×-diastolic threshold received the highest score of 5, at 3× the received score was 4, at 4× the received score was 3, at 5× the received score was 2, at 6× the received score was 1, and if no induction occurred it scored zero. For AF sustainability quantification, sustained AF was determined as lasting ≥5 minutes. Non-sustained AF received a score of zero and sustained AF received a score of 1.

Consider `CCCCCCCn1c(=O)oc2ccccc21` [BA6b9, 3-heptylbenzo[d]oxazol-2(3H)-one], for which, in the assay with isolated rat hearts [1], the “AERP (effect)” value is reported as “prolonged”, the “AVERP (effect)” value is recorded as “prolonged”, the “VERP (effect)” value is “did not change” and the “coronary flow (perfusion flow velocity)” value is given as “minimal effect”. Further, in the assay with isolated rat hearts [1], the “left ventricular filling pressure (developed pressure)” value is “reduced”, the “maximal pressure change in left ventricular contractility (dP/dt max)” value is on record as “does not effect it” and the “minimal pressure change in left ventricular contractility (dP/dt min)” value is recorded as “does not effect it”. For the same compound, in the assay with isolated rat hearts [1] (from 56 ms before compound), the AERP came to 63 ms and the PR interval was found to be 68 ms. This compound also yielded an AVERP with isolated rat hearts [1] (from 84 ms before compound) of 89 ms. In the assay with isolated rat hearts [1] (from 228 bpm before compound), the heart rate came out at 196 bpm. Also, the “reduction of AFIS” value in the assay with isolated rat hearts [2] (10 μM + 0.3 μM carbachol vs carbachol alone) came to 48%. Besides, the “AFIS (AF induction score)” value in the assay with isolated rat hearts [2] (10 μM + 0.3 μM carbachol, 3.1 with carbachol alone) is 1.6. In addition, in the assay on isolated rat hearts [2] (10 μM + 0.3 μM carbachol, 100% with carbachol alone), the “sustained AF induction” value amounted to 70%. Besides, the “heart preparations in which AF sustainability was prevented” value with isolated rat hearts [2] (10 μM, burst pacing) is recorded as 30%.
